Read-outs that look alike come from different tables or passages of the source.
Columns and labels:
[1] = biological target: T1, histamine-H1 receptors (Cavia porcellus, UniProt P31389); experiment: Histamine-H1 receptor binding assay ([3H]-mepyramine displacement); design: species or system guinea pig
T1 construct: performed in guinea pig cerebellum membranes as described previously; from tissue; host or cells: guinea pig cerebellum membranes
Experimental: Briefly, the membrane suspensions (160 μg/ml) were incubated at 30° C. with 0.7 nM [^3H]-mepyramine and different concentrations of the test compounds in a final volume of 250 μl. Binding reactions were terminated by filtration after 30 min of incubation and the bound radioactivity was determined. The specific binding was measured in the presence of 10 μM of promethazine. The affinity of each test compound to the receptor was determined by using at least six different concentrations run in duplicate. IC50 values were obtained by non-linear regression by use of SAS on a DEC AXP computer.

[2] = tested on: histamine induced skin vascular permeability; experiment: Histamine-induced skin vascular permeability in rats; format: in vivo; conditions: Rattus norvegicus; male Wistar rats, oral, dose of 1 mg/Kg, 4 hours after administration, vs vehicle treated group
Experimental: Male Wistar rats (180–210 g) were treated orally with the test compound or vehicle. 1, 4, 8 and 24 hours later, the rats were lightly anaesthetized with ether. The cutaneous reaction was induced by two intradermal injections of 50 μl of histamine (100 μg/ml) onto the back, followed by a intravenous injection of 3 ml/kg of Evan's Blue (5 mg/ml), both dissolved in saline. Sixty min later, the rats were killed by cervical dislocation and the back skin dissected free. The diameter (in millimeters) of the papule was measured in two directions and the area was calculated.

[3] = guinea pig cerebellum membranes, 0.7 nM [3H]-mepyramine, 30 min at 30° C., read-out: Binding to receptor H1 (IC50)

T1 sequence (P31389 whole entry): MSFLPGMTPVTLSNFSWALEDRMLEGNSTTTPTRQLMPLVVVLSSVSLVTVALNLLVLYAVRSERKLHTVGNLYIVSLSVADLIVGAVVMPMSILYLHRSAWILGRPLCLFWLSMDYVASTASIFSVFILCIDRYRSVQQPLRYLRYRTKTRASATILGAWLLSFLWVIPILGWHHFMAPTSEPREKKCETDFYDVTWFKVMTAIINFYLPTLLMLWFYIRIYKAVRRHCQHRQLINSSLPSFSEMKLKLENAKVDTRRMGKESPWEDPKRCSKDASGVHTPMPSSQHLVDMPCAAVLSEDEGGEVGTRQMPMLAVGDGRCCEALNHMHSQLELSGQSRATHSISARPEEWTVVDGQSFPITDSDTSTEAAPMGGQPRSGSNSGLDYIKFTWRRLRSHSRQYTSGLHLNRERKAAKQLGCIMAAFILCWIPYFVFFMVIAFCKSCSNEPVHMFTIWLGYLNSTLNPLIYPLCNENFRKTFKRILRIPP

Row | IC50 [1, 3] | Compound | inhibition in vivo at 1 mg/kg [2] | IC50 [1]
1 | 59 nM | O=C(O)c1ccccc1OCCN1CCC(c2cn(CCc3ccsc3)c3ccccc23)CC1 [Example 13, 2-(2-{4-[1-(2-thiophen-3-yl-ethyl)-1H-indol-3-yl]-piperidin-1-yl}-ethoxy)-benzoic acid] |  | 
2 | 43 nM | O=C(O)c1ccccc1OCCN1CCC(c2cn(CCc3cccs3)c3ccccc23)CC1 [Example 12, 2-(2-{4-[1-(2-thiophen-2-yl-ethyl)-1H-indol-3-yl]-piperidin-1-yl}-ethoxy)-benzoic acid] |  | 
3 | 200 nM | O=C(O)c1ccccc1OCCN1CCC(c2cn(CC3OCCO3)c3ccccc23)CC1 [Example 1, 2-{2-[4-(1-[1,3]dioxolan-2-ylmethyl-1H-indol-3-yl)-piperidin-1-yl]-ethoxy}-benzoic acid] |  | 
4 | 51 nM | O=C(O)c1ccccc1OCCN1CCC(c2cn(CCC3OCCO3)c3cc(F)ccc23)CC1 [Example 24, 2-(2-{4-[1-(2-[1,3]dioxolan-2-yl-ethyl)-6-fluoro-1H-indol-3-yl]-piperidin-1-yl}-ethoxy)-benzoic acid] | > 50% | 
5 | 205 nM | O=C(O)c1cccc(CN2CCC(c3cn(CCC4OCCO4)c4ccccc34)CC2)c1 [Example 28, 3-{4-[1-(2-[1,3]dioxolan-2-yl-ethyl)-1H-indol-3-yl]-piperidin-1-ylmethyl}-benzoic acid] |  | 
6 | 267 nM | O=C(O)c1ccccc1OCCN1CCC(c2cn(Cc3ccncc3)c3ccccc23)CC1 [Example 3, 2-{2-[4-(1-pyridin-4-ylmethyl-1H-indol-3-yl)-piperidin-1-yl]-ethoxy}-benzoic acid] |  | 
7 | 295 nM | O=C(O)c1ccccc1OCCN1CCC(c2cn(CCCC3OCCO3)c3ccccc23)CC1 [Example 21, 2-(2-{4-[1-(3-[1,3]dioxolan-2-yl-propyl)-1H-indol-3-yl]-piperidin-1-yl}-ethoxy)-benzoic acid] |  | 
8 | 98 nM | O=C(O)c1ccccc1OCCN1CCC(c2cn(Cc3ccco3)c3ccccc23)CC1 [Example 9, 2-{2-[4-(1-furan-2-ylmethyl-1H-indol-3-yl)-piperidin-1-yl]-ethoxy}-benzoic acid] |  | 
9 | 107 nM | O=C(O)c1cccc(CN2CCC(c3cn(Cc4ccco4)c4cc(F)ccc34)CC2)c1 [Example 96, 3-[4-(6-fluoro-1-furan-2-ylmethyl-1H-indol-3-yl)-piperidin-1-ylmethyl]-benzoic acid] |  | 
10 | 135 nM | COc1ccc(CN2CCC(c3cn(CCc4cccs4)c4cc(F)ccc34)CC2)cc1C(=O)O [Example 69, 5-{4-[6-fluoro-1-(2-thiophen-2-yl-ethyl)-1H-indol-3-yl]-piperidin-1-ylmethyl}-2-methoxy-benzoic acid] |  | 
11 | 400 nM | O=C(O)c1ccccc1OCCN1CCC(c2cn(Cc3ccsc3)c3ccccc23)CC1 [Example 11, 2-{2-[4-(1-thiophen-3-ylmethyl-1H-indol-3-yl)-piperidin-1-yl]-ethoxy}-benzoic acid] |  | 
12 | 354 nM | O=C(O)c1ccccc1OCCN1CCC(c2cn(CCC3OCCO3)c3ccccc23)CC1 [Example 23, 2-(2-{4-[1-(2-[1,3]dioxolan-2-yl-ethyl)-1H-indol-3-yl]-piperidin-1-yl}-ethoxy)-benzoic acid] | > 50% | 
13 | 155 nM | O=C(O)c1cc(CN2CCC(c3cn(CCCOc4ccc5c(c4)OCO5)c4ccccc34)CC2)ccc1F [Example 50, 5-(4-{1-[3-(benzo[1,3]dioxol-5-yloxy)-propyl]-1H-indol-3-yl}-piperidin-1-ylmethyl)-2-fluoro-benzoic acid] |  | 
14 | 120 nM | O=C(O)c1ccccc1OCCN1CCC(c2cn(Cc3ccc(Cl)s3)c3ccccc23)CC1 [Example 19, 2-(2-{4-[1-(5-chloro-thiophen-2-ylmethyl)-1H-indol-3-yl]-piperidin-1-yl}-ethoxy)-benzoic acid] |  | 

Further lines, the molecule ahead of its results:

Row | Compound | IC50 [1, 3] | inhibition in vivo at 1 mg/kg [2] | IC50 [1]
15 | COc1ccc(CN2CCC(c3cn(Cc4ccco4)c4ccccc34)CC2)cc1C(=O)O [Example 85, 5-[4-(1-furan-2-ylmethyl-1H-indol-3-yl)-piperidin-1-ylmethyl]-2-methoxy-benzoic acid] | 101 nM | > 50% | 
16 | COc1ccc(CN2CCC(c3cn(Cc4ccc(Cl)s4)c4cc(F)ccc34)CC2)cc1C(=O)O [Example 79, 5-{4-[1-(5-chloro-thiophen-2-ylmethyl)-6-fluoro-1H-indol-3-yl]-piperidin-1-ylmethyl}-2-methoxy-benzoic acid] | 150 nM | > 50% | 
17 | COc1ccc(CN2CCC(c3cn(Cc4cccs4)c4cc(F)ccc34)CC2)cc1C(=O)O [Example 82, 5-[4-(6-fluoro-1-thiophen-2-ylmethyl-1H-indol-3-yl)-piperidin-1-ylmethyl]-2-methoxy-benzoic acid] | 91 nM | > 50% | 
18 | O=C(O)c1ccccc1OCCN1CCC(c2cn(Cc3ccco3)c3cc(F)ccc23)CC1 [Example 22, 2-{2-[4-(6-fluoro-1-furan-2-ylmethyl-1H-indol-3-yl)-piperidin-1-yl]-ethoxy}-benzoic acid] |  | > 50% | 
19 | COc1ccc(CN2CCC(c3cn(CCc4ccsc4)c4cc(F)ccc34)CC2)cc1C(=O)O [Example 78, 5-{4-[6-fluoro-1-(2-thiophen-3-yl-ethyl)-1H-indol-3-yl]-piperidin-1-ylmethyl}-2-methoxy-benzoic acid] |  | > 50% | 65 nM
20 | O=C(O)c1ccccc1OCCN1CCC(c2cn(CCCOc3ccc4c(c3)OCO4)c3ccccc23)CC1 [Example 16, 2-[2-(4-{1-[3-(benzo[1,3]dioxol-5-yloxy)propyl]-1H-indol-3-yl}piperidin-1-yl)ethoxy]benzoic acid] | 78 nM |  | 
21 | COc1ccc(CN2CCC(c3cn(CCc4ccsc4)c4ccccc34)CC2)cc1C(=O)O [Example 75, 2-methoxy-5-{4-[1-(2-thiophen-3-yl-ethyl)-1H-indol-3-yl]-piperidin-1-ylmethyl}-benzoic acid] | 52 nM | > 50% | 
22 | O=C(O)c1cccc(CN2CCC(c3cn(Cc4cccs4)c4ccccc34)CC2)c1 [Example 25, 3-[4-(1-thiophen-2-ylmethyl-1H-indol-3-yl)-piperidin-1-ylmethyl]-benzoic acid] | 90 nM |  | 
23 | O=C(O)c1ccccc1OCCN1CCC(c2cn(Cc3ccoc3)c3cc(F)ccc23)CC1 [Example 112, 2-{2-[4-(6-fluoro-1-furan-3-ylmethyl-1H-indol-3-yl)-piperidin-1-yl]-ethoxy}-benzoic acid] | 31 nM |  | 
24 | COc1ccc(CN2CCC(c3cn(Cc4ccoc4)c4ccccc34)CC2)cc1C(=O)O [Example 86, 5-[4-(1-furan-3-ylmethyl-1H-indol-3-yl)-piperidin-1-ylmethyl]-2-methoxy-benzoic acid] | 155 nM | > 50% | 
25 | Cn1ccnc1SCCCn1cc(C2CCN(CCOc3ccccc3C(=O)O)CC2)c2ccccc21 [Example 6, 2-[2-(4-{1-[3-(1-methyl-1H-imidazol-2-ylsulfanyl)-propyl]-1H-indol-3-yl}-piperidin-1-yl)-ethoxy]-benzoic acid] | 463 nM |  | 
26 | COc1ccc(CN2CCC(c3cn(Cc4cccs4)c4ccccc34)CC2)cc1C(=O)O [Example 73, 2-methoxy-5-[4-(1-thiophen-2-ylmethyl-1H-indol-3-yl)-piperidin-1-ylmethyl]-benzoic acid] | 125 nM | > 50% | 
27 | COc1ccc(CN2CCC(c3cn(Cc4ccoc4)c4cc(F)ccc34)CC2)cc1C(=O)O [Example 80, 5-[4-(6-fluoro-1-furan-3-ylmethyl-1H-indol-3-yl)-piperidin-1-ylmethyl]-2-methoxy-benzoic acid] | 96 nM | > 50% | 
28 | O=C(O)c1ccccc1OCCN1CCC(c2cn(CCc3ccsc3)c3cc(F)ccc23)CC1 [Example 110, 2-(2-{4-[6-fluoro-1-(2-thiophen-3-yl-ethyl)-1H-indol-3-yl]-piperidin-1-yl}-ethoxy)-benzoic acid] | 23 nM |  | 
29 | COc1ccc2c(c1)c(C1CCN(CCOc3ccccc3C(=O)O)CC1)cn2CCc1ccsc1 [Example 88, 2-(2-{4-[5-methoxy-1-(2-thiophen-3-yl-ethyl)-1H-indol-3-yl]-piperidin-1-yl}-ethoxy)-benzoic acid] | 51 nM |  | 
30 | O=C(O)c1ccccc1OCCN1CCC(c2cn(CCOc3ccc4c(c3)OCO4)c3ccccc23)CC1 [Example 77, 2-[2-(4-{1-[2-(benzo[1,3]dioxol-5-yloxy)-ethyl]-1H-indol-3-yl}-piperidin-1-yl)-ethoxy]-benzoic acid] | 116 nM |  | 

Source: patent publication US7189741B2, “Indolylpiperidine derivatives as antihistaminic and antiallergic agents” (Almirall Prodesfarma S.A., priority 2000, dated 2007)
